Laboratory results reported in publication PMC4890880 (ACS infectious diseases, 2016).
pIC50: −log10 of the molar value. Where two headings read alike, the source gives them in different places.

System: HepG2-A16-CD81EGFP cells
Conditions: for pIC50: read-out: Tox_IC50, HepG2 cytotoxicity
[1] = sheet 2nd round, maximal inhibition in dose response
[2] = 2nd round, maximal inhibition in dose series

CCCNC(=O)N1[C@H](C#N)[C@H](c2ccc(-c3ccccc3F)cc2)[C@H]1CO [BRD-K88402291-001-01-4]
pIC50 (sheet "2nd round"): < 5.00 | Tox_max_inhibition (%) (sheet "2nd round"): 3%

CCCC(=O)Nc1ccc2c(c1)OC[C@@H](C)N(Cc1cc(F)ccc1F)C[C@@H](C)[C@H](OC)CN(C)C2=O [BRD-K36104357-001-01-0]
pIC50 (sheet "2nd round"): < 5.00 | Tox_max_inhibition (%) (sheet "2nd round"): 18%

O=C(C[C@H]1CC[C@@H]2[C@H](COC[C@H](O)CN2Cc2ccc(C(F)(F)F)cc2)O1)N1CCc2ccccc2C1 [BRD-K49087010-001-01-1]
pIC50 (sheet "2nd round"): 5.04 | Tox_max_inhibition (%) (sheet "2nd round"): 60%

COc1ccc(NC(=O)N2CCCCN3[C@H](CO)[C@H](c4ccc(C#Cc5ccccc5)cc4)[C@@H]3C2)cc1 [BRD-K83953444-001-02-5]
pIC50 (sheet 2nd round): < 5.00 | Tox_max_inhibition (%) [1]: 55%

Cc1cc(C(=O)Nc2ccc3c(c2)C(=O)N(C)[C@@H]2CC[C@H](CC(=O)NCc4ccc(-c5ccccc5)cc4)O[C@@H]2CO3)no1 [BRD-K35841161-001-02-2]
pIC50 (sheet 2nd round): < 5.00 | Tox_max_inhibition (%) [1]: 37%

CC(C)(C)[S@+]([O-])N1Cc2cc(C(=O)NCC(F)(F)F)nc(-c3cccc(-c4cccc(F)c4)c3)c2[C@@H]1CCO [BRD-K14002526-001-01-8]
pIC50 (sheet "2nd round"): < 5.00 | Tox_max_inhibition (%) (sheet "2nd round"): 37%

COc1ccccc1S(=O)(=O)N(C)C[C@@H]1Oc2cc(/C=C/c3ccccc3)ccc2S(=O)(=O)N([C@H](C)CO)C[C@H]1C [BRD-K26611181-001-01-8]
pIC50 (sheet 2nd round): < 5.00 | Tox_max_inhibition (%) [1]: 33%

C[C@H]1CN([C@@H](C)CO)C(=O)c2cccc(NC(=O)c3ccc(-c4nccs4)cc3)c2O[C@H]1CN(C)C(=O)Nc1ccc(C(F)(F)F)cc1 [BRD-K73614094-001-01-0]
Tox_max_inhibition (%) [2]: 12% | pIC50 (2nd round, unit inferred): < 5.00

O=C(Nc1ccc(Cl)cc1)N1C[C@@H]2[C@H](c3ccccc31)[C@@H](CO)N2CC1CCCCC1 [BRD-K89605819-001-01-4]
pIC50 (sheet "2nd round"): < 5.00 | Tox_max_inhibition (%) (sheet "2nd round"): 4.75%

CO[C@@H]1CN(C)C(=O)c2ccc(NC(=O)Nc3ccccc3F)cc2OC[C@@H](C)N(CC2CC2)C[C@H]1C [BRD-K88085458-001-01-6]
pIC50 (sheet "2nd round"): < 5.00 | Tox_max_inhibition (%) (sheet "2nd round"): 6%

CN1C(=O)c2cc(NC(=O)c3ccc(C(F)(F)F)cc3)ccc2OC[C@H]2O[C@H](CC(=O)NCc3ccc4c(c3)OCO4)CC[C@@H]21 [BRD-K92009254-001-01-6]
pIC50 (sheet "2nd round"): 5.05 | Tox_max_inhibition (%) (sheet "2nd round"): 53%

O=C(Cc1ccccc1)N1CC(=O)N2[C@H](CO)[C@H](c3ccc(C#CCc4ccccc4)cc3)[C@H]2C1 [BRD-K27191881-001-01-3]
pIC50 (sheet 2nd round): < 5.00 | Tox_max_inhibition (%) [1]: 3.49%

C[C@@H]1CN([C@H](C)CO)C(=O)c2c(c3ccccc3n2C)-c2ccccc2CO[C@@H]1CN(C)S(=O)(=O)c1ccc([N+](=O)[O-])cc1 [BRD-K04605557-001-01-2]
pIC50 (sheet 2nd round): < 5.00 | Tox_max_inhibition (%) [1]: 13%

CCCC#Cc1ccc2c(c1)O[C@H](CN(C)Cc1ccccn1)[C@H](C)CN([C@@H](C)CO)S2(=O)=O [BRD-K48766892-001-01-4]
pIC50 (sheet "2nd round"): < 5.00 | Tox_max_inhibition (%) (sheet "2nd round"): 7%

C[C@H]1CCCCO[C@H](CN(C)S(=O)(=O)c2ccccc2)[C@@H](C)CN([C@@H](C)CO)C(=O)c2cc(NC(=O)Nc3ccc4c(c3)OCO4)ccc2O1 [BRD-K40819914-001-01-3]
pIC50 (sheet "2nd round"): < 5.00 | Tox_max_inhibition (%) (sheet "2nd round"): 8.49%

COc1ccccc1C#Cc1ccc([C@H]2[C@@H](C#N)N(C(=O)C3CCCC3)[C@H]2CO)cc1 [BRD-K71730412-001-01-1]
pIC50 (sheet 2nd round): < 5.00 | Tox_max_inhibition (%) [1]: 13%

COc1ccc(S(=O)(=O)Nc2ccc3c(c2)C(=O)N([C@H](C)CO)C[C@@H](C)[C@@H](CN(C)S(=O)(=O)c2ccc(Cl)cc2)OCCCC[C@@H](C)O3)cc1 [BRD-K63849586-001-01-9]
Tox_max_inhibition (%) [2]: 13% | pIC50 (2nd round, unit inferred): < 5.00

C/C=C/c1ccc([C@H]2[C@@H](CO)N(C(=O)Nc3ccccc3F)[C@H]2C#N)cc1 [BRD-K12121340-001-01-2]
Tox_max_inhibition (%) [2]: 9% | pIC50 (2nd round, unit inferred): < 5.00

O=C(Nc1ccccc1F)N1CCCCN2[C@H](C1)[C@H](c1ccc(/C=C/c3ccccc3)cc1)[C@@H]2CO [BRD-K41549807-001-01-5]
pIC50 (sheet "2nd round"): < 5.00 | Tox_max_inhibition (%) (sheet "2nd round"): 10%

N#C[C@H]1[C@@H](c2ccc(C3=CCCCC3)cc2)[C@@H](CO)N1C(=O)Nc1ccccc1F [BRD-K81680265-001-01-4]
Tox_max_inhibition (%) [2]: 11% | pIC50 (2nd round, unit inferred): < 5.00

O=C(Nc1ccccc1F)N1CCCCN2[C@H](CO)[C@H](c3ccc(/C=C/c4ccccc4)cc3)[C@H]2C1 [BRD-K88581921-001-01-3]
pIC50 (sheet 2nd round): < 5.00 | Tox_max_inhibition (%) [1]: 3%

N#Cc1cccc(-c2ccc3c(c2)[C@H]2[C@H](CCN2S(=O)(=O)c2ccc(F)cc2)[C@@H](CO)N3)c1 [BRD-K73006286-001-01-7]
pIC50 (sheet 2nd round): < 5.00 | Tox_max_inhibition (%) [1]: 15%

COc1ccccc1NC(=O)Nc1ccc2c(c1)OC[C@@H](C)N(Cc1ccccc1Cl)C[C@@H](C)[C@H](OC)CN(C)C2=O [BRD-K28918058-001-01-5]
pIC50 (sheet 2nd round): < 5.00 | Tox_max_inhibition (%) [1]: 13%

C[C@@H]1CN([C@H](C)CO)C(=O)c2cc(NC(=O)Nc3ccc4c(c3)OCO4)ccc2O[C@@H](C)CCCCO[C@H]1CN(C)S(=O)(=O)c1ccccc1 [BRD-K54383078-001-01-5]
pIC50 (sheet 2nd round): < 5.00 | Tox_max_inhibition (%) [1]: 5.48%

N#C[C@@H]1[C@H](c2ccccc2)[C@H](CO)N1C(=O)Nc1cccc(F)c1 [BRD-K99496840-001-01-9]
pIC50 (sheet 2nd round): < 5.00 | Tox_max_inhibition (%) [1]: 4.23%

COc1ccc(C#Cc2ccc([C@@H]3[C@@H](CO)N4CCCCN(C(=O)Nc5cccc(F)c5)C[C@H]34)cc2)cc1 [BRD-K38867404-001-01-3]
pIC50 (sheet 2nd round): < 5.00 | Tox_max_inhibition (%) [1]: 4%

N#C[C@H]1[C@H](c2ccc(-c3cccc(F)c3)cc2)[C@@H](CO)N1C(=O)NC1CCCC1 [BRD-K69441790-001-01-1]
pIC50 (sheet 2nd round): 5.01 | Tox_max_inhibition (%) [1]: 57%

CO[C@@H]1CN(C)C(=O)c2ccc(NC(=O)c3ccc4c(c3)OCO4)cc2OC[C@@H](C)N(Cc2ccc3c(c2)OCO3)C[C@H]1C [BRD-K38901607-001-01-5]
pIC50 (sheet "2nd round"): < 5.00 | Tox_max_inhibition (%) (sheet "2nd round"): 11%

CC(C)NC(=O)N1[C@H](C#N)[C@H](c2ccc(C#CC3CCCCC3)cc2)[C@@H]1CO [BRD-K48864121-001-01-0]
Tox_max_inhibition (%) [2]: 54% | pIC50 (2nd round, unit inferred): 5.01

N#C[C@H]1N[C@H](CO)[C@H]1c1ccc(C#Cc2ccccc2F)cc1 [BRD-K80648041-001-01-3]
pIC50 (sheet 2nd round): < 5.00 | Tox_max_inhibition (%) [1]: 11%

CCCNC(=O)N1[C@H](C#N)[C@H](c2ccc(C3=CCCCC3)cc2)[C@@H]1CO [BRD-K52785744-001-01-7]
pIC50 (sheet "2nd round"): 5.10 | Tox_max_inhibition (%) (sheet "2nd round"): 50%

CCCNC(=O)N1[C@H](C#N)[C@@H](c2ccccc2-c2cccc(C)c2)[C@@H]1CO [BRD-K35047119-001-01-1]
Tox_max_inhibition (%) [2]: 7% | pIC50 (2nd round, unit inferred): < 5.00

CN1C(=O)c2cc(NC(=O)c3cccc(F)c3)ccc2OC[C@H]2O[C@H](CC(=O)NCC3CCCCC3)CC[C@H]21 [BRD-K31618614-001-02-1]
pIC50 (sheet "2nd round"): < 5.00 | Tox_max_inhibition (%) (sheet "2nd round"): 27%

C[C@@H]1CN([C@@H](C)CO)C(=O)Cc2cc(NC(=O)C3CCCCC3)ccc2O[C@H]1CN(C)Cc1ccc(Cl)c(Cl)c1 [BRD-K87663528-001-01-7]
pIC50 (sheet "2nd round"): < 5.00 | Tox_max_inhibition (%) (sheet "2nd round"): 58%

C[C@@H]1CCCCO[C@@H](CN(C)Cc2ccc(Cl)c(Cl)c2)[C@@H](C)CN([C@@H](C)CO)C(=O)c2cc(NS(=O)(=O)c3cccs3)ccc2O1 [BRD-K97609851-001-01-5]
pIC50 (sheet 2nd round): < 5.00 | Tox_max_inhibition (%) [1]: 39%

O=C(C[C@H]1C[C@@H]2c3cc(NC(=O)c4ccc5c(c4)OCO5)ccc3O[C@@H]2[C@@H](CO)O1)NCc1ccc(Oc2ccccc2)cc1 [BRD-K34781184-001-01-6]
pIC50 (sheet 2nd round): < 5.00 | Tox_max_inhibition (%) [1]: 49%

N#C[C@H]1N[C@H](CO)[C@H]1c1ccc(C#CC2CCCCC2)cc1 [BRD-K74656908-001-01-6]
pIC50 (sheet 2nd round): < 5.00 | Tox_max_inhibition (%) [1]: 6%

C[C@@H]1CCCCO[C@H](CN(C)S(=O)(=O)c2ccc(F)cc2)[C@@H](C)CN([C@H](C)CO)C(=O)c2cc(N(C)C)ccc2O1 [BRD-K38977317-001-01-6]
pIC50 (sheet 2nd round): < 5.00 | Tox_max_inhibition (%) [1]: 6%

COc1ccccc1NC(=O)N1C[C@@H]2N[C@H](C1)C2c1ccc(/C=C/c2ccccc2)cc1 (stereo partly drawn) [BRD-K16425675-019-01-0]
pIC50 (sheet 2nd round): < 5.00 | Tox_max_inhibition (%) [1]: 9%

COc1cccc(-c2cccc(-c3nc(C(=O)NCc4ccc(Oc5ccccc5)cc4)cc4c3[C@@H](CCO)N([S+]([O-])C(C)(C)C)C4)c2)c1 (stereo partly drawn) [BRD-K03403405-001-03-3]
pIC50 (sheet 2nd round): < 5.00 | Tox_max_inhibition (%) [1]: 6%

C[C@@H]1CN([C@@H](C)CO)C(=O)c2cccc(NC(=O)c3cnccn3)c2O[C@@H]1CN(C)Cc1ccc(-c2ccccc2)cc1 [BRD-K92545585-001-01-9]
pIC50 (sheet 2nd round): < 5.00 | Tox_max_inhibition (%) [1]: 4.65%

Cc1ccc(S(=O)(=O)N(C)C[C@H]2Oc3cc(C#CC4CCCC4)ccc3S(=O)(=O)N([C@@H](C)CO)C[C@H]2C)cc1 [BRD-K99467823-001-01-1]
pIC50 (sheet 2nd round): < 5.00 | Tox_max_inhibition (%) [1]: 31%

COc1ccc(NC(=O)N2CCCCN3[C@H](CN(C)C)[C@H](c4ccc(C#Cc5ccccc5)cc4)[C@@H]3C2)cc1 [BRD-K78727929-001-08-1]
pIC50 (sheet 2nd round): 5.07 | Tox_max_inhibition (%) [1]: 100%

CS(=O)(=O)N1C[C@@H]2N[C@H](C1)C2c1ccc(-c2ccccc2)cc1 (stereo partly drawn) [BRD-K16971439-019-01-0]
pIC50 (sheet 2nd round): < 5.00 | Tox_max_inhibition (%) [1]: 5%

O=C(Nc1cc(F)ccc1F)N1CCCCN2[C@H](CO)[C@H](c3ccc(C4=CCCCC4)cc3)[C@@H]2C1 [BRD-K26542939-001-01-0]
pIC50 (sheet 2nd round): < 5.00 | Tox_max_inhibition (%) [1]: 16%

C(=C\c1ccc(C2[C@@H]3CN(Cc4nccs4)C[C@H]2N3)cc1)/c1ccccc1 (stereo partly drawn) [BRD-K82593502-019-01-3]
Tox_max_inhibition (%) [2]: 13% | pIC50 (2nd round, unit inferred): < 5.00

Cc1ccc(S(=O)(=O)N2CC[C@H]3[C@H](CO)Nc4ccc(-c5cccc(C(=O)N(C)C)c5)cc4[C@H]32)cc1 [BRD-K64741770-001-01-3]
pIC50 (sheet 2nd round): < 5.00 | Tox_max_inhibition (%) [1]: 15%

O=C(NCC[C@H]1CC[C@H](NC(=O)c2ccccc2F)[C@@H](CO)O1)c1cnccn1 [BRD-K85850546-001-01-0]
pIC50 (sheet 2nd round): < 5.00 | Tox_max_inhibition (%) [1]: 9%
